US11773057B2, “Naphthalenesulfonamide compound, preparation method, and application” (CHINA PHARMACEUTICAL UNIVERSITY, priority 2019, dated 2023)
pIC50: −log10 of the molar value. Blank lines part the entries; values can stand above or below the molecule they belong to.

Legend:
[1] = target: T1, Keap1-Nrf2 PPI (Keap1 kelch domain protein, FITC labeled Nrf2 9 peptide) (Homo sapiens, UniProt Q14145); test: Fluorescence polarization based Keap1-Nrf2 PPI competitive inhibition experiment (FP experiment); assay type: binding; details: for pIC50: FP experiment
T1 construct: 10 μL 12 nm Keap1 kelch domain protein
Protocol: 1. Keap1-Nrf2 PPI Competitive Inhibition Test Based on Fluorescence Polarization (FP Experiment)
The 384-well blackboard model 3676 produced by Corning is used in FP experiment, with a total volume of reaction of 40 μL. 20 μL compound, 10 μL 4 nm FITC labeled Nrf2 9 peptide, 10 μL 12 nm Keap1 kelch domain protein are added to the well in order. 20 μL 200 nM DDO-1002, 10 μL 4 nM of the FITC-labeled Nrf2 9 peptide, 10 μL 12 nM of Keap1 Ketch domain protein are used in the positive control; 20 μL HEPES buffer, 10 μL 4 nM of the FITC-labeled Nrf2 9 peptide, 10 μL, 12 nM of Keap1 Kelch domain protein are used in the negative control; 10 μL 4 nM of the FITC-labeled Nrf2 9 peptide, 30 μL of HEPES buffer are used in the blank control. After addition is complete, they are incubated for 30 min at room temperature. The detection instrument is a SpectraMax Multi-Mode Microplate Reader (Molecular Devices), the excitation light wavelength selected is 485 nm, the emission light wavelength is 545 nm, and the fluorescence intensity in the horizontal and vertical directions is detected to calculate the polarization value. The inhibition rate is calculated as: inhibition %=[…]/(Pmax−Pmin) wherein Pobs is the polarization value of the compound well, Pmax is the polarization value of the negative control well, and Pmin is the polarization value of the blank well. Data treatment is performed using GraphPad Prism, and IC50 of the compound is calculated using a concentration-inhibition rate curve. The IC50 values for each compound are as previously described.

HepG2-ARE-C8 cells = test: ARE luciferase reporter gene experiment; assay type: cell-based; details: compound acts 12 h, ratio to DMSO group, FIG. 1, in words
Protocol: 2. ARE Luciferase Reporter Gene Experiment
HepG2-ARE-C8 cells in log growth phase (these cells are given by A. N. Tony Kong of Rutgers University) are digested with 0.1% pancreatin to prepare a cell suspension, the cell suspension is added to a 96-well microtiter plate at a cell concentration of 4×10^5/mL, added 100 μL per well, and after overnight culture, a DMSO group serves as a negative control, t-BHQ serves as a positive control, and a cell culture lysis reagent serves as a background value. The compound is allowed to act for 12 h, three replicate wells were provided, the growth medium is carefully pipetted from the cells to be examined, 100 μL of pre-cooled. […] 100 μL luciferase detection reagent is added to each well and read immediately. […] Typical delay time is 2 seconds, typical reading time is 10 seconds, and the last measured data is divided from the DMSO group. […]
By a fluorescence polarization based Keap1-Nrf2 PPI competitive inhibition experiment we have shown that on the target level, some compounds (compound numbers see FIG. 1) are able to efficiently compete for binding to Keap1 and thereby activating Nrf2. […] When luciferin is present in a substrate, the […], and the activation capability of a compound on Nrf2 is indirectly reflected by means of fluorescence intensity. […]

[2] = general formula III compounds, unit inferred
[3] = general formula V / VI compounds

T1 sequence (Q14145 321-609 limits assumed): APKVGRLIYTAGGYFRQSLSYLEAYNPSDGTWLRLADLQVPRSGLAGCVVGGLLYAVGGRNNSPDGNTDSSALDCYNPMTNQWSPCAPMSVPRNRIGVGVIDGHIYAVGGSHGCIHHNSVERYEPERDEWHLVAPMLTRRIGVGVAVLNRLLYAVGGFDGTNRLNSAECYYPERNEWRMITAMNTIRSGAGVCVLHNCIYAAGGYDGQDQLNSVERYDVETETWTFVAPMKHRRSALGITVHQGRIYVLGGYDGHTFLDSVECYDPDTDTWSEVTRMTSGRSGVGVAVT

Structure (SMILES): C#CCN(c1ccc(N(CC(=O)O)S(=O)(=O)c2ccc(C(C)C)cc2)c2ccccc12)[C@@H](C)CC(=O)O [DDO-1197, (S)-3-((4-((N-(carboxymethyl)-4-isopropylphenyl)sulfonamido)naphthalen-1-yl)(prop-2-yn-1-yl)amino) butanoic acid]
pIC50 ([1]; general formula IV compounds): 7.10

Structure (SMILES): C#CCN(c1ccc(N(CC(=O)O)S(=O)(=O)c2ccccc2OC)c2ccccc12)[C@@H](C)CC(=O)O [DDO-1199]
pIC50 ([1]; general formula IV compounds): 6.54

Structure (SMILES): C#CCN(c1ccc(NS(=O)(=O)c2ccccc2C)c2ccccc12)[C@@H](C)CC(=O)O [DDO-1202, (S)-3-((4-((2-methylphenyl)sulfonamido)naphthalen-1-yl)(prop-2-yn-1-yl)amino) butanoic acid]
pIC50 [1, 2]: 6.62

Structure (SMILES): C#CCN(c1ccc(N(CC(=O)O)S(=O)(=O)c2ccccc2C)c2ccccc12)[C@@H](C)CC(=O)O [DDO-1203, (S)-3-((4-((N-(Carboxymethyl)-methylphenyl)sulfonamido)naphthalen-1-yl)(prop-2-yn-1-yl)amino) butanoic acid]
pIC50 ([1]; general formula IV compounds): 6.77

Structure (SMILES): C#CCN(c1ccc(N(CC(=O)O)S(=O)(=O)c2c(C)c(C)cc(C)c2C)c2ccccc12)[C@@H](C)CC(=O)O [DDO-1209, (S)-3-((4-((N-(Carboxymethyl)-2,3,5,6-tetramethylphenyl)sulfonamido)naphthalen-1-yl)(prop-2-yn-1-yl)amino) butanoic acid]
pIC50 ([1]; general formula IV compounds): 6.82

Structure (SMILES): C#CCN(c1ccc(NS(=O)(=O)c2ccc(OC)c(OC)c2)c2ccccc12)[C@@H](C)CC(=O)O [DDO-1210, (S)-3-((4-((3,4-dimethoxyphenyl)sulfonamido)naphthalen-1-yl) (prop-2-yn-1-yl)amino) butanoic acid]
pIC50 [1, 3]: 7.14

Structure (SMILES): C#CCN(c1ccc(N(CC(=O)O)S(=O)(=O)c2ccc(OC)c(OC)c2)c2ccccc12)[C@@H](C)CC(=O)O [DDO-1211, (S)-3-((4-((N-(Carboxymethyl)-3,4-dimethoxyphenyl)sulfonamido)naphthalen-1-yl)(prop-2-yn-1-yl)amino) butanoic acid]
pIC50 [1, 3]: 7.23

Structure (SMILES): C#CCN(c1ccc(NS(=O)(=O)c2ccc(OC)c(F)c2)c2ccccc12)[C@@H](C)CC(=O)O [DDO-1212, (S)-3-((4-((3-fluoro-4-methoxyphenyl)sulfonamido)naphthalen-1-yl) (prop-2-yn-1-yl)amino) butanoic acid]
pIC50 [1, 3]: 6.56

Structure (SMILES): C#CCN(c1ccc(N(CC(=O)O)S(=O)(=O)c2ccc(OC)c(F)c2)c2ccccc12)[C@@H](C)CC(=O)O [DDO-1213]
pIC50 [1, 3]: 6.81

Structure (SMILES): C#CCN(c1ccc(N(CC(=O)O)S(=O)(=O)c2ccc(OC)c(Cl)c2)c2ccccc12)[C@@H](C)CC(=O)O [DDO-1215]
pIC50 [1, 3]: 7.40

Structure (SMILES): C#CCN(c1ccc(NS(=O)(=O)c2ccc(OC)c(C)c2)c2ccccc12)[C@@H](C)CC(=O)O [DDO-1216, (S)-3-((4-((4-methoxy-3-methylphenyl)sulfonamido)naphthalen-1-yl) (prop-2-yn-1-yl)amino) butanoic acid]
pIC50 [1, 3]: 7.14

Structure (SMILES): C#CCN(c1ccc(N(CC(=O)O)S(=O)(=O)c2ccc(OC)c(C)c2)c2ccccc12)[C@@H](C)CC(=O)O [DDO-1217, (S)-3-((4-((N-(Carboxymethyl)-4-methoxy-3-methylphenyl)sulfonamido)naphthalen-1-yl)(prop-2-yn-1-yl)amino) butanoic acid]
pIC50 [1, 3]: 7.43

Structure (SMILES): C#CCN(c1ccc(N(CC(=O)O)S(=O)(=O)c2c(C)cc(OC)c(C)c2C)c2ccccc12)[C@@H](C)CC(=O)O [DDO-1219, (S)-3-((4-((N-(Carboxymethyl)-4-methoxy-2,3,6-trimethylphenyl)sulfonamidyl)naphthalen-1-yl)(prop-2-yn-1-yl)amino) butanoic acid]
pIC50 [1, 3]: 8.15

Structure (SMILES): C#CCN(c1ccc(NS(=O)(=O)c2ccc3c(c2)CCO3)c2ccccc12)[C@@H](C)CC(=O)O [DDO-1222, (S)-3-((4-((2,3-dihydrobenzofuran)-5-sulfonamido)naphthalen-1-yl) (prop-2-yn-1-yl)amino) butanoic acid]
pIC50 [1, 3]: 6.80

Results, then the molecule that gave them:

pIC50 [1, 2]: 5.70
Structure (SMILES): C#CCN(c1ccc(NS(=O)(=O)c2ccccc2OC)c2ccccc12)[C@@H](C)CC(=O)O [DDO-1198]

pIC50 [1, 2]: 6.62
Structure (SMILES): C#CCN(c1ccc(NS(=O)(=O)c2cccc(OC)c2)c2ccccc12)[C@@H](C)CC(=O)O [DDO-1200, (S)-3-((4-((3-methoxyphenyl)sulfonamido)naphthalen-1-yl)(prop-2-yn-1-yl)amino) butanoic acid]

pIC50 ([1]; general formula IV compounds): 6.89
Structure (SMILES): C#CCN(c1ccc(N(CC(=O)O)S(=O)(=O)c2cccc(OC)c2)c2ccccc12)[C@@H](C)CC(=O)O [DDO-1201]

pIC50 [1, 2]: 7.03
Structure (SMILES): C#CCN(c1ccc(NS(=O)(=O)c2ccc(C)cc2C)c2ccccc12)[C@@H](C)CC(=O)O [DDO-1204, (S)-3-((4-((2,4-dimethylphenyl)sulfonamido)naphthalen-1-yl) (prop-2-yn-1-yl)amino) butanoic acid]

pIC50 ([1]; general formula IV compounds): 7.57
Structure (SMILES): C#CCN(c1ccc(N(CC(=O)O)S(=O)(=O)c2ccc(C)cc2C)c2ccccc12)[C@@H](C)CC(=O)O [DDO-1205]

pIC50 [1, 2]: 7.39
Structure (SMILES): C#CCN(c1ccc(NS(=O)(=O)c2c(C)cc(C)cc2C)c2ccccc12)[C@@H](C)CC(=O)O [DDO-1206, (S)-3-(prop-2-yn-1-yl(4-((2,4,6-trimethylphenyl)sulfonamido)naphthalen-1-yl)amino) butanoic acid]

pIC50 ([1]; general formula IV compounds): 7.82
Structure (SMILES): C#CCN(c1ccc(N(CC(=O)O)S(=O)(=O)c2c(C)cc(C)cc2C)c2ccccc12)[C@@H](C)CC(=O)O [DDO-1207, (S)-3-((4-((N-(Carboxymethyl)-2,4,6-trimethylphenyl)sulfonamidyl)naphthalen-1-yl)(prop-2-yn-1-yl)amino) butanoic acid]

pIC50 [1, 3]: 7.12
Structure (SMILES): C#CCN(c1ccc(NS(=O)(=O)c2ccc(OC)c(Cl)c2)c2ccccc12)[C@@H](C)CC(=O)O [DDO-1214]

pIC50 [1, 3]: 7.64
Structure (SMILES): C#CCN(c1ccc(NS(=O)(=O)c2c(C)cc(OC)c(C)c2C)c2ccccc12)[C@@H](C)CC(=O)O [DDO-1218, (S)-3-((4-((4-methoxy-2,3,6-trimethylphenyl)sulfonamido)naphthalen-1-yl) (prop-2-yn-1-yl)amino) butanoic acid]

pIC50 [1, 3]: 7.89
ARE luciferase reporter gene activity (fold induction), cell activity (HepG2-ARE-C8 cells): has the optimal cell activity
Structure (SMILES): C#CCN(c1ccc(NS(=O)(=O)c2c(C)cc(OC)cc2C)c2ccccc12)[C@@H](C)CC(=O)O [DDO-1220]

pIC50 [1, 3]: 8.24
target activity in the FP assay ([1]; in words): optimal target activity
ARE luciferase reporter gene activity (fold induction), cell activity (HepG2-ARE-C8 cells): does not have the optimal cell activity
Structure (SMILES): C#CCN(c1ccc(N(CC(=O)O)S(=O)(=O)c2c(C)cc(OC)cc2C)c2ccccc12)[C@@H](C)CC(=O)O [DDO-1221]

pIC50 [1, 3]: 7.07
Structure (SMILES): C#CCN(c1ccc(N(CC(=O)O)S(=O)(=O)c2ccc3c(c2)CCO3)c2ccccc12)[C@@H](C)CC(=O)O [DDO-1223, (S)-3-((4-((N-(Carboxymethyl)-2,3-dihydrobenzofuran)-5-sulfonamido)naphthalen-1-yl)(prop-2-yn-1-yl)amino) butanoic acid]
